Values joined by “and” are separate entries in the source; they are usually repeats but may differ in a detail not shown here. Identical values can stand only once. Inconclusive results and toxic doses are left out. Rule as the data show it: active = T/C of 150% or more; inactive = T/C below 125%.
System: L1210 leukemia ip in BDF1 mice, survival T/C
Assay: NCI In Vivo Anticancer Drug Screen. Data for tumor model L1210 Leukemia (intraperitoneal) in B6D2F1 (BDF1) mice
Conditions: higher = longer survival
Summary of the method: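 Transplanted-tumor mice were given test agent; controls received vehicle only. Survival readings from the two groups were divided (treated over control).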

[1] = endpoint: mean survival time, dose: 100.0 mg/kg/injection, schedule: Q01DX001 (ip), vehicle: Klucel (hydroxypropylcellulose) (HPC)
[2] = endpoint: mean survival time, dose: 100.0 mg/kg/injection, schedule: Q01DX009 (ip), vehicle: Klucel (hydroxypropylcellulose) (HPC)
[3] = endpoint: mean survival time, dose: 200.0 mg/kg/injection, schedule: Q01DX001 (ip), vehicle: Klucel (hydroxypropylcellulose) (HPC)
[4] = endpoint: mean survival time, dose: 200.0 mg/kg/injection, schedule: Q01DX009 (ip), vehicle: Klucel (hydroxypropylcellulose) (HPC)
[5] = endpoint: mean survival time, dose: 400.0 mg/kg/injection, schedule: Q01DX001 (ip), vehicle: Klucel (hydroxypropylcellulose) (HPC)
[6] = endpoint: mean survival time, dose: 400.0 mg/kg/injection, schedule: Q01DX009 (ip), vehicle: Klucel (hydroxypropylcellulose) (HPC)
[7] = endpoint: mean survival time, dose: 50.0 mg/kg/injection, schedule: Q01DX001 (ip), vehicle: carboxymethylcellulose (CMC)
[8] = endpoint: mean survival time, dose: 100.0 mg/kg/injection, schedule: Q01DX001 (ip), vehicle: carboxymethylcellulose (CMC)
[9] = endpoint: mean survival time, dose: 200.0 mg/kg/injection, schedule: Q01DX001 (ip), vehicle: carboxymethylcellulose (CMC)
[10] = endpoint: mean survival time, dose: 400.0 mg/kg/injection, schedule: Q01DX001 (ip), vehicle: carboxymethylcellulose (CMC)
[11] = endpoint: mean survival time, dose: 100.0 mg/kg/injection, schedule: Q01DX009 (ip), vehicle: saline
[12] = endpoint: mean survival time, dose: 200.0 mg/kg/injection, schedule: Q01DX009 (ip), vehicle: saline
[13] = endpoint: mean survival time, dose: 400.0 mg/kg/injection, schedule: Q01DX009 (ip), vehicle: saline
[14] = endpoint: mean survival time, dose: 100.0 mg/kg/injection, schedule: Q04DX003 (ip), vehicle: saline
[15] = endpoint: mean survival time, dose: 200.0 mg/kg/injection, schedule: Q04DX003 (ip), vehicle: saline
[16] = endpoint: mean survival time, dose: 400.0 mg/kg/injection, schedule: Q04DX003 (ip), vehicle: saline
[17] = endpoint: mean survival time, dose: 100.0 mg/kg/injection, schedule: Q04DX003 (ip), vehicle: saline with Tween-80
[18] = endpoint: mean survival time, dose: 200.0 mg/kg/injection, schedule: Q04DX003 (ip), vehicle: saline with Tween-80
[19] = endpoint: mean survival time, dose: 100.0 mg/kg/injection, schedule: Q04DX002 (ip), vehicle: Klucel (hydroxypropylcellulose) (HPC)
[20] = endpoint: mean survival time, dose: 100.0 mg/kg/injection, schedule: Q04DX003 (ip), vehicle: Klucel (hydroxypropylcellulose) (HPC)
[21] = endpoint: mean survival time, dose: 200.0 mg/kg/injection, schedule: Q04DX002 (ip), vehicle: Klucel (hydroxypropylcellulose) (HPC)
[22] = endpoint: mean survival time, dose: 200.0 mg/kg/injection, schedule: Q04DX003 (ip), vehicle: Klucel (hydroxypropylcellulose) (HPC)
[23] = endpoint: mean survival time, dose: 400.0 mg/kg/injection, schedule: Q04DX002 (ip), vehicle: Klucel (hydroxypropylcellulose) (HPC)
[24] = endpoint: mean survival time, dose: 400.0 mg/kg/injection, schedule: Q04DX003 (ip), vehicle: Klucel (hydroxypropylcellulose) (HPC)
[25] = endpoint: mean survival time, dose: 400.0 mg/kg/injection, schedule: Q04DX003 (ip), vehicle: saline with Tween-80

Measured: T/C

CN(C)c1ccc(/C=C/c2ccc3ccccc3n2)cc1
inactive: [1] 100 % of control | [2] 103 % of control | [3] 97 % of control | [4] 100 % of control | [5] 101 % of control | [6] 95 % of control

NS(=O)(=O)c1cc2c(cc1Cl)NCNS2(=O)=O
inactive: endpoint: median survival time, dose: 125.0 mg/kg/injection, schedule: Q12HX016 (oral), vehicle: Klucel (hydroxypropylcellulose) (HPC) 95 % of control | endpoint: median survival time, dose: 125.0 mg/kg/injection, schedule: Q12HX022 (oral), vehicle: Klucel (hydroxypropylcellulose) (HPC) 94 % of control | endpoint: median survival time, dose: 250.0 mg/kg/injection, schedule: Q12HX016 (oral), vehicle: Klucel (hydroxypropylcellulose) (HPC) 93 % of control | endpoint: median survival time, dose: 250.0 mg/kg/injection, schedule: Q12HX022 (oral), vehicle: Klucel (hydroxypropylcellulose) (HPC) 98 % of control | endpoint: median survival time, dose: 500.0 mg/kg/injection, schedule: Q12HX016 (oral), vehicle: Klucel (hydroxypropylcellulose) (HPC) 93 % of control | endpoint: median survival time, dose: 500.0 mg/kg/injection, schedule: Q12HX022 (oral), vehicle: Klucel (hydroxypropylcellulose) (HPC) 98 % of control

Nc1[nH]c(=S)ncc1-c1ccccc1Cl
inactive: endpoint: mean survival time, dose: 6.25 mg/kg/injection, schedule: Q01DX009 (ip), vehicle: Klucel (hydroxypropylcellulose) (HPC) 94 % of control | endpoint: mean survival time, dose: 12.5 mg/kg/injection, schedule: Q01DX009 (ip), vehicle: Klucel (hydroxypropylcellulose) (HPC) 94 % of control | endpoint: mean survival time, dose: 25.0 mg/kg/injection, schedule: Q01DX009 (ip), vehicle: Klucel (hydroxypropylcellulose) (HPC) 97 % of control | [2] 88 % of control

O=C(O)C1C(C(=O)O)C(c2ccccc2)C1c1ccccc1 (configuration not stated)
inactive: [7] 90 % of control | [8] 97 % of control | [9] 103 % of control | [10] 90 % of control

Cc1ccccc1C(=O)c1ccccc1C(=O)c1ccccc1
inactive: [7] 98 % of control | [8] 88 % of control | [11] 97 % of control | [9] 93 % of control | [12] 95 % of control | [10] 101 % of control | [13] 97 % of control

c1ccc2c(c1)[nH]c1nc3ncncc3nc12
inactive: [14] 94 % of control | [15] 88 % of control | [16] 97 % of control

CC(=O)OC1=C2C(C)(CCC(OC(C)=O)C2(C)C)C2=C(C1=O)C1(C)CCC(C(C)CCCC(C)C)C1(C)CC2=O (configuration not stated)
inactive: [17] 87 % of control | [18] 87 % of control

COc1ccccc1/C(=C/c1ccc([N+](=O)[O-])cc1)C(=O)O
inactive: [1] 100 % of control | [2] 97 % of control and 100 % of control | [19] 101 % of control and 107 % of control | [20] 97 % of control | [3] 94 % of control | [4] 95 % of control and 103 % of control | [21] 102 % of control and 103 % of control | [22] 100 % of control | [5] 94 % of control | [6] 100 % of control | [23] 97 % of control and 104 % of control | [24] 101 % of control

CC1OC(OC2C(CO)OC(O[C@H]3CC[C@@]4(C)C(=CC[C@H]5[C@@H]6C[C@@H]7O[C@@]8(CC[C@H](C)CN8)[C@@H](C)[C@@H]7[C@@]6(C)CC[C@@H]54)C3)C(OC3OC(C)C(O)C(O)C3O)C2O)C(O)C(O)C1O (some centres not stated)
inactive: endpoint: mean survival time, dose: 10.0 mg/kg/injection, schedule: Q01DX009 (ip), vehicle: saline 115 % of control | endpoint: mean survival time, dose: 20.0 mg/kg/injection, schedule: Q01DX009 (ip), vehicle: saline 103 % of control | endpoint: mean survival time, dose: 40.0 mg/kg/injection, schedule: Q01DX009 (ip), vehicle: saline 100 % of control | endpoint: mean survival time, dose: 80.0 mg/kg/injection, schedule: Q01DX009 (ip), vehicle: saline 103 % of control

CC(=O)N1C(=O)N(Cl)C(=O)C1(c1ccc(Cl)cc1)c1ccc(Cl)cc1
inactive: endpoint: mean survival time, dose: 100.0 mg/kg/injection, schedule: Q01DX009 (ip), vehicle: saline with Tween-80 108 % of control | [17] 92 % of control | endpoint: mean survival time, dose: 200.0 mg/kg/injection, schedule: Q01DX009 (ip), vehicle: saline with Tween-80 104 % of control | [18] 100 % of control | endpoint: mean survival time, dose: 400.0 mg/kg/injection, schedule: Q01DX009 (ip), vehicle: saline with Tween-80 102 % of control | [25] 98 % of control

C=CCNC(=O)Oc1cccc(NC(=O)OC)c1
inactive: [17] 107 % of control | [18] 108 % of control | [25] 105 % of control

CCCCC(=O)N(C(C)C)C(C)C
inactive: endpoint: mean survival time, dose: 50.0 mg/kg/injection, schedule: Q01DX009 (ip), vehicle: carboxymethylcellulose (CMC) 94 % of control and 103 % of control | endpoint: mean survival time, dose: 100.0 mg/kg/injection, schedule: Q01DX009 (ip), vehicle: carboxymethylcellulose (CMC) 97 % of control and 102 % of control | endpoint: mean survival time, dose: 100.0 mg/kg/injection, schedule: Q04DX002 (ip), vehicle: carboxymethylcellulose (CMC) 95 % of control and 98 % of control | endpoint: mean survival time, dose: 200.0 mg/kg/injection, schedule: Q04DX002 (ip), vehicle: carboxymethylcellulose (CMC) 95 % of control

COc1ccc2c3c1OC1c4[nH]ncc4CC4C(C2)N(C)CCC314 (configuration not stated)
inactive: [20] 104 % of control | [22] 93 % of control | [24] 106 % of control

O=c1c(-c2ccccc2)c(-c2ccccc2)n2n1C1C=CC2C1 (configuration not stated)
inactive: [8] 96 % of control | [9] 96 % of control | [10] 96 % of control

CNC(=O)NCCCCCCCCCCC(=O)O
inactive: [2] 104 % of control | [4] 91 % of control | [6] 106 % of control

O=[N+]([O-])c1cccs1
inactive: endpoint: mean survival time, dose: 50.0 mg/kg/injection, schedule: Q01DX009 (ip), vehicle: Klucel (hydroxypropylcellulose) (HPC) 97 % of control | [2] 108 % of control | endpoint: mean survival time, dose: 100.0 mg/kg/injection, schedule: Q04DX003 (ip), vehicle: other 104 % of control | endpoint: mean survival time, dose: 200.0 mg/kg/injection, schedule: Q04DX003 (ip), vehicle: other 103 % of control

COC(=O)C(C)(C)O
inactive: [11] 102 % of control | [14] 104 % of control | [12] 102 % of control | [15] 100 % of control | [13] 97 % of control | [16] 104 % of control

Cc1ccc(S(=O)(=O)F)cc1C(=O)NCc1ccc(OCc2nc(N)nc(N)c2-c2ccc(Cl)c(Cl)c2)cc1
inactive: endpoint: mean survival time, dose: 32.5 mg/kg/injection, schedule: Q01DX001 (ip), vehicle: Klucel (hydroxypropylcellulose) (HPC) 96 % of control | endpoint: mean survival time, dose: 65.0 mg/kg/injection, schedule: Q01DX001 (ip), vehicle: Klucel (hydroxypropylcellulose) (HPC) 96 % of control | endpoint: mean survival time, dose: 130.0 mg/kg/injection, schedule: Q01DX001 (ip), vehicle: Klucel (hydroxypropylcellulose) (HPC) 96 % of control

CCCCCCCCCCCCCCCCCC[P+](CCCC)(CCCC)CCCC
inactive: endpoint: mean survival time, dose: 0.75 mg/kg/injection, schedule: Q04DX002 (ip), vehicle: saline with Tween-80 110 % of control | endpoint: mean survival time, dose: 1.5 mg/kg/injection, schedule: Q04DX002 (ip), vehicle: saline with Tween-80 90 % of control | endpoint: mean survival time, dose: 3.0 mg/kg/injection, schedule: Q04DX002 (ip), vehicle: saline with Tween-80 100 % of control | endpoint: mean survival time, dose: 3.12 mg/kg/injection, schedule: Q04DX002 (ip), vehicle: saline with Tween-80 87 % of control | endpoint: mean survival time, dose: 6.25 mg/kg/injection, schedule: Q04DX002 (ip), vehicle: saline with Tween-80 94 % of control

O=C1OC(c2cccc(Cl)c2)=N/C1=C\c1ccc(O)cc1
inactive: endpoint: mean survival time, dose: 100.0 mg/kg/injection, schedule: Q04DX002 (ip), vehicle: saline with Tween-80 118 % of control | endpoint: mean survival time, dose: 200.0 mg/kg/injection, schedule: Q04DX002 (ip), vehicle: saline with Tween-80 100 % of control | endpoint: mean survival time, dose: 400.0 mg/kg/injection, schedule: Q04DX002 (ip), vehicle: saline with Tween-80 104 % of control

Cc1ccc(C)c(NC(=O)c2ccc([N+](=O)[O-])cc2)c1
inactive: [19] 100 % of control | [21] 89 % of control | [23] 92 % of control

Cc1ccc(S(=O)(=O)NCCCc2c(C)nc(N)n(Cc3cccc([N+](=O)[O-])c3)c2=O)cc1
inactive: [1] 103 % of control | [3] 91 % of control | [5] 103 % of control

— PubChem BioAssay AID248 (DTP/NCI, 2004)
